Laboratory results: PubChem BioAssay AID493003 (Sanford-Burnham Center for Chemical Genomics, 2010)

test system: S. cerevisiae tim10-1 mutant growth, luminescence; assay: tim10-1 yeast growth inhibition potency – luminescence, S. cerevisiae, uHTS hits, dose response (AID 493003);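 note: yeast growth measured after about 22 hours at 25 °C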

SMILES	IC50 [µM]
C/C(=N\O)c1cc(Cl)cc(Cl)c1O	15
Nc1cccc(Nc2nc(OC(C(F)(F)F)C(F)(F)F)nc(OC(C(F)(F)F)C(F)(F)F)n2)c1	39.6
Cn1ncc2c(Nc3cccc(Cl)c3)nc(Nc3cccc(Cl)c3)nc21	24.4
COc1ccc(/C(N)=N/OC(=O)c2cccs2)cc1OC	42.8
Cn1ncc2c(Nc3ccc(Br)cc3)nc(Nc3ccc(Br)cc3)nc21	18.7
Cc1ccc(NC(=S)/N=C(\N)Nc2nc(C)c3cc(C)ccc3n2)c(C)c1	12.7
CCOC(=O)c1sc(=S)n(Cc2ccccc2)c1N	50.4
Cn1c(N2CCOCC2)nc(-c2ccccc2)c1-c1ccccc1	22.9
Nc1cc(Cl)ccc1Oc1ccc2ccccc2c1	23.1
CCSc1nnc(NC(=O)c2nc(-c3ccccc3)n(-c3ccccc3)n2)s1	25.9
CCOC(=O)N1CCN(C(=O)c2ccc(CSc3ccc(Cl)cc3)cc2)CC1	74.1
CCCN(CC1COc2ccccc2O1)C(=S)Nc1ccc(C)cc1 (configuration not stated)	33.5
O=[N+]([O-])c1cccc(NC(=S)NCCc2ccccc2)c1	32.8
O=C(NNC(=S)Nc1cccc(C(F)(F)F)c1)c1ccc(Cl)cc1Cl	8.5
O=c1cc(-c2ccc(C3CCCCC3)cc2)[nH][nH]1	29.5
CC1=C/C(=N\OS(=O)(=O)c2ccccc2)C(C)=CC1=O	0.3
COc1ccc2[nH]c3c(=O)n4c(nc3c2c1)SCCC4	40.7
COC(=O)N1C(=O)[C@@](c2ccccc2)(C2CCCCC2)N1C(=O)OC	61.7
Fc1ccccc1CNC(=S)Nc1cccc(C(F)(F)F)c1	10.5
CC(C)C(c1nnnn1C1CCCC1)N1CCCc2ccccc21 (configuration not stated)	14.2
Cc1ccccc1OCC(=O)Nc1ccc(S(=O)(=O)N2CCCC2)cc1	15.6
Cc1ccc(-c2csc(-c3c[nH]c4ccccc34)n2)cc1	25.4
Cc1ccc(F)c([C@H]2C3C=CCC(c4ccccc4)C3C(=O)N2Cc2ccccc2)c1 (some centres not stated)	15.2
CCCCNC(=S)Nc1ccc(C(F)(F)F)cc1	18.3

SMILES	IC50 [µM]
O=[N+]([O-])/C(C(Cl)=C(Cl)Cl)=C(/Sc1ccccc1)N1CCCCC1	38.7
COC(=O)c1cc(C)[nH]c2c(C)cc3nc4ccccc4c3c12	21
Nc1nc(N)c(C=Nc2ccc(Br)cc2)c(Nc2ccc(Br)cc2)n1	16.8
N/C(=N\OC(=O)Cc1ccc([N+](=O)[O-])cc1)c1cccc(Br)c1	27.4
NC(=S)N/N=C/c1ccccc1OCCSc1ccc(Cl)cc1	74.7
COc1cc(OC)c(C(=O)O/N=C(\N)c2ccc(C)cc2)cc1OC	14.5
Cn1c(CSc2nnc(SCc3ccccc3)s2)nc2ccccc21	19.6
FC(F)Sc1ccc(NC(=S)NC2CCCC2)cc1	20.8
N/C(=N\OC(=O)c1ccc(F)cc1)c1ccc(Br)cc1	6.61
CCCc1cc(-c2n[nH]c(=S)n2-c2cccc(C)c2)cs1	37.5
C/C(=N\N=c1/sc2ccccc2n1C)c1ccccn1	45.7
CC1CCN(c2ccccc2NC(=S)NC(=O)C(C)(C)C)CC1	75.8
Cc1[nH]c(-c2ccc(F)cc2)cc1C(=O)N1CCN(c2ccccc2F)CC1	35.5
C=CCNC(=S)NNc1nc2c(c(=O)[nH]1)C1(CCCCC1)Cc1ccccc1-2	40.3
CC1CCCCN1S(=O)(=O)c1ccc2c(c1)CCN2C(=O)C1CCC1 (configuration not stated)	61.7
O=C(N/N=C/c1ccc[nH]1)c1cc(-c2ccc(Cl)cc2)nc2ccccc12	10.1
N/C(CCS(=O)(=O)c1ccc(Cl)cc1)=N\OC(=O)c1ccccc1C(F)(F)F	37.5
Cc1sc2ncnc(N3CCN(CCOc4ccc(Cl)cc4)CC3)c2c1C	38.2
N/C(=N\OC(=O)CCCOc1ccccc1)c1cccc([N+](=O)[O-])c1	53.4
COc1ccc(N2C(=O)CC(Sc3nnc(-c4ccccc4)o3)C2=O)cc1 (configuration not stated)	47.2
Cc1nc2scc(C)n2c(=O)c1S(=O)(=O)N1CCN(c2cccc(C(F)(F)F)c2)CC1	47.3
Nc1nc(-c2ccc(Br)s2)c(Br)s1	23.5
C/C(=N\NC(=S)Nc1cccc(C)c1)c1cc2ccccc2o1	47.7
